Assay results from patent US20250129370A1, “METHOD FOR REDUCING HEPATIC TRIGLYCERIDES” (ADAERATA, LIMITED PARTNERSHIP, priority 2022, published 2025).

How the values were obtained:
[1] = tested on: PC7; experiment: PC7 shedding of hTfR1 into the media, Huh7 cells; type: cell-based, human; conditions: Huh7, 2×, 3× and 5× miR-125a-5p vector
Description: FIGS. 32A-B Western blot (FIG. 32A) and quantitative (FIG. 32B) analysis of human PC7 and TFR1 expression in Huh7 cells, in which miR-125-5p was overexpressed. […] X stands for vector DNA fold for miR-125-5p compared to vector expressing PC7. Because both PC7-V5 and hTfR1-V5 were V5-tagged, the WB using a mAb-V5 reflects the expression of both proteins.
In the next step, the effect of miR-125a-5p on PC7 function was determined. First, the miR-125a-5p-overexpressing vector and its related mock plasmids were co-transfected with the pIRES vector (Invitrogen, USA), containing the full length of cDNA encoding the PCSK7 mRNA with the complete 3′-UTR in Huh7 cells. […] Thereafter, the impact of miR-125a-5p on the enzymatic function of PC7 was assessed by co-transfecting Huh7 cells with the miR-125a-5p-overexpressing vector, with that coding for the full length of PCSK7, and a plasmid encoding hTfR1 (Guillemot et al., 2013; Durand et al., 2020). […]
Subsequently, proteins were isolated with an ice-cold RIPA buffer (1×), comprising 50 mM of Tris hydrochloride (pH 8), 150 mM of sodium chloride, 0.1% sodium dodecyl sulfate, 1% Nonidet P40, 0.25% sodium deoxycholate, and a cocktail of protease inhibitors (Roche, Oakville, ON, Canada). […] Subsequently, immunoreactive bands (the signal) were visualized with an enhanced chemiluminescent reaction kit (Bio-Rad, USA) and recorded via chemiluminescence. […]

[2] = tested on: 3′-UTR of human PCSK7 mRNAs; experiment: Dual-luciferase reporter assay, wild-type PCSK7 3′-UTR, HEK293T cells; type: cell-based; conditions: wild-type PCSK7 3′-UTR psiCHECK-2, HEK293T
Excerpt: The interactions between the miRNAs and their probable targets on PCSK7 were explored by cloning the potential target regions in psiCHECK-2™ (Promega, USA), a luciferase reporter vector. In psiCHECK-2™, hRluc, the Renilla luciferase gene, is located upstream of the target regions of interest cloned into the psiCHECK-2™ vector downstream of the Renilla gene. The region corresponding to the 3′-UTR of PCSK7 (926-nt sequences in length) that constituted the predicted miRNA response elements was PCR-amplified and cloned downstream of the Renilla luciferase gene in the psiCHECK-2™ vector (Promega, USA). […]
The HEK293T cells were co-transfected through the application of the wild-type psiCHECK-2, the wild-type PCSK7 3′-UTR, the mutant PCSK7 3′-UTR, and the miR-overexpressing vectors so that the direct interactions of the nominated miRNAs with PCSK7 3′-UTR could be investigated. […] Transfection efficiency was monitored by fluorescent microscopy (Nikon TE2000S, Japan) 36 hours following the procedure.
The PsiCHECK-2 reporter construct plasmid contained the Renilla luciferase gene upstream of PCSK7 3′-UTR and an independent firefly luciferase gene as an internal control for normalization. […] Then, LARII Reagent was added, and after 20 minutes, the firefly luciferase activity was measured as a control. Afterward, Renilla activity was determined using Stop & Glo Reagent. […]

## miR-125a-5p: miRNA targeting PCSK7 3′-UTR and exons 14 and 15, overexpressed from pEGFP-C1 precursor vector (UCCCUGAGACCCUUUAACCUGUGA; miRNA expressed from a pEGFP-C1 precursor vector, further chemistry not given here)
[1]
  ability of PC7 to shed hTfR1 into the media: led to a decline
[2]
  reduction of relative luciferase activity: ~50%
